From patent EP0894794A1, “Optical isomers of cloperastine” (AESCULAPIUS FARMACEUTICI S.r.l., priority 1997, dated 1999)
Marks after values point to notes of the source that are not given here.

How the values were obtained:
guinea pigs = experiment: citric acid aerosol coughing test; settings: for ED50 / inhibition at 1 mg/kg / inhibition at 5 mg/kg / inhibition at 10 mg/kg: Cavia porcellus, inhaled or nasal; for inhibition at 1 mg/kg / inhibition at 5 mg/kg / inhibition at 10 mg/kg: read-out: inhib. %; for coughs in 3 min mean + SD: fendizoate, guinea pigs, 8 animals
mouse [1] = experiment: test of potentiation of pentylenetetrazole (interaction with central stimulants); settings: fendizoate, dose 150 mg/kg; for % variation: mean score vs. vehicle controls; for Mean score: scores 0 to 4 after intraperitoneal 50 mg/kg PTZ, mouse, 20 animals
[2] = acute toxicity (LD50), mouse; settings: mouse, in vivo, LD50 and 95% conf. lim., HCl, female mouse
rat = experiment: acute toxicity (LD50), rat; settings: HCl, female rat
[3] = acute toxicity (LD50), rat; settings: rat, in vivo, ip, LD50 and 95% conf. lim., HCl; female rat; intraperit.
mouse [4] = experiment: narcosis from hexobarbital (interaction with central depressants); settings: fendizoate; for Duration of sleep: mean ± SD after intraperitoneal 80 mg/kg sodium hexobarbital, mouse; for % variation: sleeping time vs. vehicle controls
mouse [5] = experiment: acute toxicity (LD50), mouse; settings: HCl, female mouse

Compound | ED50 (guinea pigs) | inhibition at 1 mg/kg (guinea pigs) | inhibition at 5 mg/kg (guinea pigs) | inhibition at 10 mg/kg (guinea pigs) | coughs in 3 min mean + SD (guinea pigs; dose 1 mg/kg) | coughs in 3 min mean + SD (guinea pigs; dose 5 mg/kg) | coughs in 3 min mean + SD (guinea pigs; dose 10 mg/kg) | % variation (mouse [1]; 150 mg/kg) | Mean score (mouse [1]) | LD50 and 95% conf. lim. (rat; oral) | Duration of sleep (mouse [4]; dose 5 mg/kg) | % variation (mouse [4]; dose 5 mg/kg, 5 mg/kg) | Duration of sleep (mouse [4]; dose 15 mg/kg) | % variation (mouse [4]; dose 15 mg/kg, 15 mg/kg) | Duration of sleep (mouse [4]; dose 50 mg/kg) | % variation (mouse [4]; dose 50 mg/kg, 50 mg/kg) | Duration of sleep (mouse [4]; dose 150 mg/kg) | % variation (mouse [4]; dose 150 mg/kg, 150 mg/kg) | other results
Clc1ccc(C(OCCN2CCCCC2)c2ccccc2)cc1 (single isomer, unassigned) [L-CLO, L(-) cloperastine] | 4.23 mg/kg | 32.7% | 45.4% | 66.3% | 44.5 ± 8.65 | 36.1 ± 5.24 | 22.3 ± 5.20 | 36.4% | 1.50 | 1226 (981-1532) mg/kg | 38.90 ± 7.89 min | +16.5% | 67.60 ± 16.75 min | +102.3** % | 43.10 ± 9.07 min | +29.0(°) % | 18.70 ± 2.87 min | -44.1** % | LD50 ([2]; ip, intraperit.): 171 mg/kg; LD50 ([2]; po): 512 mg/kg; LD50 [3]: 195 mg/kg
Clc1ccc(C(OCCN2CCCCC2)c2ccccc2)cc1 (single isomer, unassigned) [D-CLO, D(+) cloperastine] |  |  |  |  |  |  |  | 186.4% | 3.15**(°°) | 602 (474-764) mg/kg | 71.70 ± 10.92 min | +114.7**(°°) % | 45.80 ± 8.67 min | +37.1*(°) % | 22.40 ± 6.37 min | -32.9*(°°) % | 8.90 ± 3.01 min | -73.4**(°°) % | LD50 and 95% conf. lim. (mouse [5]; intraperit.): 96 (74.4-123.8) mg/kg; LD50 and 95% conf. lim. (mouse [5]; oral): 269 (219-331) mg/kg; LD50 and 95% conf. lim. (rat; intraperit.): 106 (82-138) mg/kg
Clc1ccc(C(OCCN2CCCCC2)c2ccccc2)cc1 (racemic) [DL-CLO, DL-cloperastine] | 7.22 mg/kg | 13.5% | 41.9% | 57.2% | 57.7 ± 8.21 | 38.4 ± 5.33 | 28.3 ± 4.50 |  | 2.45**(°°) |  | 53.80 ± 9.05 min |  | 45.50 ± 6.39 min |  | 25.80 ± 7.30 min |  | 10.40 ± 4.18 min |  | % variation (mouse [1]): 122.7%; % variation (mouse [4]; dose 5 mg/kg): +61.1**(°°) %; % variation (mouse [4]; dose 15 mg/kg): +36.2**(°) %; % variation (mouse [4]; dose 50 mg/kg): -22.8(°°) %; % variation (mouse [4]; dose 150 mg/kg): -68.9** %
